According to article PMC11063903, “Engineering a human P2X2 receptor with altered ligand selectivity in yeast” (The Journal of Biological Chemistry, 2024):
Values belong to the compound of their own block, whether it stands above or below them.

Tests used:
[1] = target: T1, human P2X2 receptor (Homo sapiens, UniProt Q9UBL9); assay: GCaMP calcium assay of P2X2 expressed in yeast S. cerevisiae, agonist response; type: cell-based; conditions: yeast; for EC50: read-out: EC50
T1 construct: expressed in transfected cells; host or cells: S. cerevisiae BY4741 background, P2X2 genome-integrated under a galactose-inducible promoter
T1 sequence (Q9UBL9 1-471): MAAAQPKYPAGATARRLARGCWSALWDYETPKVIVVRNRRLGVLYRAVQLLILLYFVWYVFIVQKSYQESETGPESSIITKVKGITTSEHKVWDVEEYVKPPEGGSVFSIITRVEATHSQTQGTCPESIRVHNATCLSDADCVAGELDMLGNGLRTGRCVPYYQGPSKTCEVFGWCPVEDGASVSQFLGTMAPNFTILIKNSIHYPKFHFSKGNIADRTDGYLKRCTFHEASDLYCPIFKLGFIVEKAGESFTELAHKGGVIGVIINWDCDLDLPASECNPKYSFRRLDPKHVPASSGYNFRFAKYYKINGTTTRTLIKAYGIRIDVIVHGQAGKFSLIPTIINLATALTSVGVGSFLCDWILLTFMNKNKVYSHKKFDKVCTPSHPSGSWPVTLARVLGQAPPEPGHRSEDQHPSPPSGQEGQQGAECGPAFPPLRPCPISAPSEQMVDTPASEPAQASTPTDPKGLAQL
From the text: Although P2X receptors are expressed in many eukaryotic organisms including some fungi ([24]), they are not present in S. cerevisiae. For recombinant expression to yield functional P2X channels, receptor proteins must be correctly folded, assembled into trimers, and efficiently trafficked to the plasma membrane. To assess whether P2X ion channels could functionally gate in S. cerevisiae the canonical isoforms of P2X1-7 were co-expressed with aequorin, a calcium-activated photoprotein from the jellyfish Aequorea victoria.
(§1) Genetic knockouts of the calnexin homolog (ΔCne1p) and vacuolar calcium transporter (Δ Vcx1p) (n = 3) were compared to the WT yeast strain (n = 2). […] Statistical analysis was performed using one-way ANOVA with Dunnett’s multiple comparisons test where ∗∗ is p ≤ 0.01. […] Yeast were injected with ATP at 21 s and onset rates from the last six points (40–48 s) were used for calculating the dose response in (D). E and F, kinetic and dose–response measurements of P2X2 with the GCaMP reporter with ATP (n = 4), partial agonist BzATP (n = 3), and agonist 2-chloro-ATP (n = 4). Figures (D and F) share the figure legend with (C). […] Suramin was pre-equilibrated with P2X2-yeast for 10 min and 5 μM ATP was injected.
To expand the assay throughput to accommodate several 96-well plates at a time, we required the acquisition of short-duration signals. Since GCaMP signals are typically measured in terms of ΔF/F0, where ΔF is Fmax-Fmin, and since the signal takes several minutes to reach Fmax, we instead attempted to correlate the rate of signal onset (rather than its amplitude) with channel activity.
Having optimized our yeast strains and assay throughput, we sought to further validate the function of human P2X2 in the yeast host.
GCaMP assays were performed as follows. P2X2 GCaMP strains were designed with a bi-cistronic reporter, in which the GCaMP protein was followed by a 2A peptide and a mScarletI reporter ([53]). The co-translated mScarletI was designed to act as a control for plasmid loss, GCaMP breakage via nonsense mutation, and contamination. […] P2X2-GCaMP strains were cultured and induced as previously described. Samples were induced for 24 h to allow for the accumulation of the mature GCaMP protein. Cells were washed three times in 0.1 M MES/Tris buffer and resuspended with MES/Tris with supplemental calcium. Cells were loaded onto a black, clear bottom microplate and imaged on a FlexStation3 plate reader. Samples were imaged in “flex” mode. Samples were imaged for 48 s at an interval of 1.6 s. Fluorescence was measured with an excitation at 485 nm, and emission 525 nm. At the 21 s mark, 100 μl ligand solution was transferred to the cells. For strains with mScarlet, fluorescence was read with excitation 570 nm/emission 610 nm. Slopes were calculated from the last 6 points of measurement and were normalized to the positive control samples. Any replicate in which the mScarlet value was measured to be over 2 standard deviations less than the mean for that set was discarded from further analysis.

[2] = tested on: P2X2; conditions: mammalian cells; cited from earlier work
[3] = tested on: P2X2; design: method as in PMID 12885270; conditions: read-out: reported IC50 values; cited from earlier work
[4] = target: T1, human P2X2 receptor; assay: Suramin inhibition of ATP-stimulated P2X2 gating in yeast, GCaMP; type: cell-based; conditions: suramin pre-equilibrated 10 min, 5 μM ATP injected, n = 4; read-out: IC50 (second value in brackets) (converted)
Description: as §1, with “injected. […]” for “injected.”
GCaMP assays were performed as follows. […] Cells were loaded onto a black, clear bottom microplate and imaged on a FlexStation3 plate reader. […] Fluorescence was measured with an excitation at 485 nm, and emission 525 nm. […] For strains with mScarlet, fluorescence was read with excitation 570 nm/emission 610 nm. Slopes were calculated from the last 6 points of measurement and were normalized to the positive control samples. Any replicate in which the mScarlet value was measured to be over 2 standard deviations less than the mean for that set was discarded from further analysis.

[5] = kinetic and dose-response GCaMP assay, Fig. 1E-F

Compound: Nc1nc(Cl)nc2c1ncn2[C@@H]1O[C@H](COP(=O)(O)OP(=O)(O)OP(=O)(O)O)[C@@H](O)[C@H]1O [2-Chloro ATP, 2-Chloro-Adenosinetriphosphate]
EC50 [1, 5]: 1 µM
EC50 [2]: 2.5 µM

Compound: 2′(3′)-O-(4-Benzoylbenzoyl)adenosine-5′-triphosphate [BzATP]
peak amplitudes relative to the canonical ATP ligand ([1]; GCaMP kinetic assay): less than 50%
pEC50 [1, 5]: 5.89 ± 0.096 M
EC50 [1, 5]: 1.28 µM

IC50 [4]: 26.9 µM
Compound: Cc1ccc(C(=O)Nc2ccc(S(=O)(=O)O)c3cc(S(=O)(=O)O)cc(S(=O)(=O)O)c23)cc1NC(=O)c1cccc(NC(=O)Nc2cccc(C(=O)Nc3cc(C(=O)Nc4ccc(S(=O)(=O)O)c5cc(S(=O)(=O)O)cc(S(=O)(=O)O)c45)ccc3C)c2)c1 [suramin]
IC50 [3]: 10 µM
